Measured values published in paper PMC11166458, “Caskin2 is a novel talin- and Abi1-binding protein that promotes cell motility” (Journal of Cell Science, 2024).
No end group written: not given here.

What was measured:
[1] = test system: MCF7 cells; assay: Caskin2–talin colocalization in MCF7 cells (Pearson's correlation); assay type: cell-based, Human; settings: blebbistatin 10 µM, 20 µM for 45 min (Fig. S3B)
Experimental: PA-JEB/β4 keratinocytes were seeded on glass coverslips and cultured for 24 h in complete KGM, and then continued to be cultured for a further 16 h in DMEM with 10% FCS. GE11^tetONβ1 and MCF7 cells were seeded on glass coverslips and cultured for 24 h in DMEM with 10% FCS. Cells were fixed in 2% paraformaldehyde and permeabilized with 0.2% Triton X-100 for 5 min, blocked with PBS containing 2% bovine serum albumin (BSA; Sigma-Aldrich) for 45 min and subsequently incubated with primary and secondary antibodies for 1 h. In between antibody steps, the coverslips were washed three times with PBS. Actin fibers were visualized by staining with Phalloidin–Alexa Fluor 647 (Cell Signaling Technology). Nuclei were stained with DAPI. Samples were mounted on glass slides in Mowiol after three washing steps with PBS. Images were acquired with a Leica TCS SP5 confocal microscope with a 63× (NA 1.4) oil objective. Software for image acquisition is Leica LAS AF 3.0.2 ([Wang et al., 2020b]).
Imaging analysis was performed using FIJI software ([Schindelin et al., 2012]). The levels of colocalization between Caskin2 and various other proteins, including integrin β4, FA proteins and CMSC components, was performed using Pearson's co-efficient analysis in the JACoP module of ImageJ ([Carisey et al., 2013]; [Wang et al., 2020b]).

[2] = test system: talin-R7R8 (residues 1358–1653), R8 domain; assay: X-ray structure of talin-R7R8 in complex with Caskin2-LD peptide, interface analysis; assay type: binding, murine; settings: electron density map; 1:2 molar ratio of protein to peptide
Experimental: A codon-optimized synthetic gene encoding murine talin-R7/R8 domains (residues 1358–1653) was cloned into the pETNKI-6xhis-3C-LIC vector ([Luna-Vargas et al., 2011]). The 6×his–3C–talin-R7/R8 protein was expressed in Bl21(DE3) cells, for 18 h at 20°C upon induction with 0.4 mM IPTG. Cells were harvested by centrifugation (4000 g for 15 min) and stored at −20°C. After thawing, cells were resuspended in lysis buffer [25 mM Tris-HCl pH 8.0, 10 mM imidazole, 200 mM NaCl, 1 mM TCEP and 5 μg/ml DNase (Roche)] and lysed by sonication. The soluble lysate fractions were collected after centrifugation (55,000 g at 4°C for 30 min) and applied to a nickel Sepharose column. Beads were washed with wash buffer (lysis buffer without DNase) and protein was eluted in the same buffer supplemented with 250 mM imidazole. The 6×His tag was cleaved off by his-3C protease during dialysis against 25 mM Tris-HCl pH 8.0, 100 mM NaCl, 1 mM TCEP for 16 h at 4°C. The protein solution was diluted with an equal volume of 25 mM Tris-HCl pH 8.0, 1 mM TCEP before his-3C protease and uncleaved 6×his–talin-R7/R8 were removed by nickel Sepharose. The protein was further purified by anion exchange chromatography (Resource Q column, Cytiva) followed by size exclusion chromatography (S75 Superdex 16/60, Cytiva) in 25 mM Tris-HCl pH 8.0, 100 mM NaCl, 1 mM TCEP. Talin-R7/R8 eluted in a single peak. […]

| Compound | overall Caskin2–talin colocalization [1] | binding to talin-R8 in crystal structure [2] |
| --- | --- | --- |
| Cc1ccc2c(c1)C(=O)C1(O)CCN(c3ccccc3)C1=N2 (centres unmarked) [blebbistatin] | increased overall Caskin2–talin colocalization | – |
| Caskin2-LD peptide: C-terminal LD motif peptide of Caskin2 (residues 1187–1202) (STMFDALADQLDAMLD; also: Atto488 label) | – | clear binding of the Caskin2-LD peptide to the R8 motif |
